In one assay the target is DHODH (Homo sapiens (Human), UniProt Q02127). The assay can be described thus: DHODH activity assay (coupled enzyme assay, DCIP reduction). The class given is biochemical. To be noted: read-out: DHODH inhibition activity, IC50 group. The method, then: The DHODH activity assay is a coupled enzyme assay in which oxidation of DHO and subsequent reduction of ubiquinone are stoichiometrically equivalent to the reduction of DCIP ([…]). The reduction of DCIP is accompanied by a loss of absorbance at 610 nm.
Chain of DHODH (Q02127 whole entry): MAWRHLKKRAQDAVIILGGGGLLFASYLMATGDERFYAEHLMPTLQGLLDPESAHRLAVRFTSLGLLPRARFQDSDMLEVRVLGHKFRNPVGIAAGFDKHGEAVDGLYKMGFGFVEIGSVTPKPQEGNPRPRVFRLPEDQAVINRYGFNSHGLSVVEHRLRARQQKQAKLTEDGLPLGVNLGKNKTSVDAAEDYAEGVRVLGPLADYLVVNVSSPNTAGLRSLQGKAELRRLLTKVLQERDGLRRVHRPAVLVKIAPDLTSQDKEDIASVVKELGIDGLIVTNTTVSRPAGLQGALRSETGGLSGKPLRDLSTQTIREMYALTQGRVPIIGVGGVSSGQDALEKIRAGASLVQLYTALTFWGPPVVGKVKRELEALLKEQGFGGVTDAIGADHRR
Buffer Preparation: 50 mM tris HCl, 150 mM KCl, and pH 8.0, 0.8% triton.
L-Dihydroorotic acid stock solution of 20 mM in buffer.
2, 6-Dichloroindophenol Sodium salt hydrate stock solution of 20 mM in buffer.
Decylubiquinone stock solution of 20 mM in buffer.
5 μL of Dimethyl sulfoxide or a compound of formula (I) in DMSO solution was added to the wells of a 96 well plate. Compounds of formula (I) were measured at 10 μM.
Protein along with buffer was added, so that the total volume including the DMSO was 87 μL. Compound and protein were incubated for half an hour at room temperature after mixing. 5 μL of 20 mM solution of L-Dihydroorotic acid, 5 μL of 2 mM solution of Decylubiquinone and 3 μL of 2 mM solution of 2, 6-Dichloroindophenol sodium salt hydrate were added to the above solution (total assay volume 100 μL). The mixture was stirred for 2 min and absorbance was recorded at every 10 min at 610 nanometers.
Percent inhibition is calculated as follows: […]
A 2 mM DMSO stock solution of the selected trisubstituted benzoimidazole and benzotriazole derivatives of formula (I) of the present invention to be examined was prepared. Subsequent ⅓rd dilutions were made.
5 μL of each stock of compound of formula (I) was used for each 100 μL assay. Therefore, 5 μL of the 2 mM stock provided 100 μL of 100 μM solution of compound of formula (I), when made up with buffer, protein and substrate. See also: Ulrich et al. (2001) Eur. J. Biochem.268, 1861-1868.

For the next assay, the system named is Ramos cells. The assay can be described thus: Ramos proliferation assay (XTT). The class given is cell-based. As to conditions: Homo sapiens, 72 hrs. An excerpt:
Cell proliferation assay is a sensitive method for quantification of viable cells in cytotoxicity or proliferation assay. The XTT (2,3-bis[2-Methoxy-4-nitro-5-sulfophenyl]-2 H-tetrazolium-5-carboxyanilide inner salt) system is a means of measuring the activity of living cells via mitochondrial dehydrogenases. Mitochondrial dehydrogenases of viable cells cleave the tetrazolium ring of XTT, yielding orange formazon crystals which are soluble in aqueous solutions. The XTT solution is potentiated by the addition of an electron coupling agent, phenazine methosulphate (PMS) to the reaction. The resulting orange colour is spectrophotometrically measured at 450 nm. An increase or decrease in cell numbers results in a concomitant change in the amount of formazon formed, indicating the degree of cytotoxicity caused by the test material.
Dissolve 17.7 g IMDM (Iscove's Modified Dulbecco's Medium) powder, 1.5 g sodium bicarbonate pH 7.2-7.4 in 1 L MiliQ water, add 1% Pencilin/ Streptomycin and 10% FBS.
Dissolve 10.6 g Ham's F12 powder, 1.5 g sodium bicarbonate pH 7.2-7.4 in 1 L MiliQ water, add 1% Penicillin/Streptomycin. DMSO used as vehicle.
Ramos cells were re-suspended to a density of 1×10^5 cells/ ml in complete IMDM medium. 95 μL of this cell suspension was added to the 96-well plate to seed ˜10,000 cells per well. The plates were incubated at 37° C. under a humidified atmosphere of 5% CO2 for ˜1 hour before compound addition.
Test compounds (Refer to Table 1) were dissolved in 100% DMSO to generate a 2/6/10/20 mM stock solution. A 200× concentration of the required final concentrations was prepared in DMSO. 10 μL of each concentration (200×) was then diluted in 90 μL of serum-free Ham's F12 medium to get an intermediate concentration of 20× in medium. The DMSO concentration in this step is 10% (Intermediate dilution). 5 μL of each intermediate dilution was then added in triplicates in the previously seeded 96-well plate. The final DMSO concentration was 0.5% in the experimental wells. Cells treated with 0.5% DMSO served as positive control. 100 μL, of complete IMDM medium served as media blank for data analysis. 200 μL, of 1× PBS was added in all corner wells of the assay plate. Plates were then incubated for 72 hrs in an incubator with 5% CO2 at 37° C.
On termination day, 100 μl of XTT solution (1 mg/ml XTT supplemented with 25 μM PMS in Ham's F12 medium) was added to each well. Plates were incubated for 2 hrs. The amount of formazon produced was determined by reading the absorbance of the plate using VICTOR X5 multilabel plate reader at wavelength of 450 nm. The IC50 values were determined as concentrations that reduced cell viability by 50% and the curve was plotted with GraphPad Prism 6.0.
Percent (%) Inhibition was calculated by normalizing DMSO control values to 100% using the formula: % Inhibition=[…](Abs450test compound−blank)/(Abs450positive control−blank)*100
Test compound contains cells, test compound, IMDM medium and 0.5% DMSO
Positive control contains cells, IMDM medium and 0.5% DMSO
Blank contains IMDM medium

Regarding `Cc1ccccc1-c1ccc(-c2cc(C(=O)O)c3c(c2)nnn3C)cc1` [Compound 1, 1-methyl-5-(2′-methyl-[1,1′-biphenyl]-4-yl)-1H-benzo[d][1,2,3]triazole-7-carboxylic Acid], the IC50 – broadly, the concentration needed to halve the response being measured – on DHODH was less than 100 nM; with Ramos cells (XTT) it was 49 nM. Moreover, the inhibition – broadly, the drop in the measured response relative to a control, in per cent – at 30 µM in the assay on Ramos cells (30 μM, read-out: Maximum % Inhibition at 30 μM) was determined as 107%.

The record behind these values is patent US11147801B2, “Methods of use for trisubstituted benzotriazole derivatives as dihydroorotate oxygenase inhibitors” (Aurigene Discovery Technologies Limited, priority 2017, dated 2021).
